Reference: PubChem BioAssay (NCI)
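Protocol summary: plate cells (96-well), add compound at 5 concentrations, incubate 48 h, interpolate endpoints linearly. TGI: concentration producing complete growth inhibition.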 Where a SMILES comes first, the peptide text is derived from it. [ ]: non-standard residue; d: D form. The star is where a group is joined. Bn2Val = CC(C)[C@@H](C(=O)*)N(Cc1ccccc1)Cc1ccccc1; NHPiperonyl = c1cc2c(cc1CN*)OCO2; NMeV = CN[C@H](C(=O)O)C(C)C; dNMeA = CN[C@H](C)C(=O)O

Columns and labels:
Assay in all cases: NCI tumour cell line growth inhibition, 48 h
NCI/ADR-RES ovarian = test system: NCI/ADR-RES ovarian
KM12 colon = test system: KM12 colon
HCT-15 colon = test system: HCT-15 colon
BT-549 breast = test system: BT-549 breast
TK-10 renal = test system: TK-10 renal
NCI-H522 lung = test system: NCI-H522 lung
SF-268 CNS = test system: SF-268 CNS
MOLT-4 leukemia = test system: MOLT-4 leukemia
SR leukemia = test system: SR leukemia
SK-MEL-2 melanoma = test system: SK-MEL-2 melanoma
UACC-257 melanoma = test system: UACC-257 melanoma
COLO 205 colon = test system: COLO 205 colon
OVCAR-4 ovarian = test system: OVCAR-4 ovarian
SW-620 colon = test system: SW-620 colon
MDA-N = test system: MDA-N
OVCAR-5 ovarian = test system: OVCAR-5 ovarian
SNB-75 CNS = test system: SNB-75 CNS
A498 renal = test system: A498 renal
HT29 colon = test system: HT29 colon
T-47D breast = test system: T-47D breast
U251 CNS = test system: U251 CNS
ACHN renal = test system: ACHN renal
SK-MEL-28 melanoma = test system: SK-MEL-28 melanoma
HCT-116 colon = test system: HCT-116 colon
LOX IMVI melanoma = test system: LOX IMVI melanoma
SN12C renal = test system: SN12C renal
CAKI-1 renal = test system: CAKI-1 renal
SF-539 CNS = test system: SF-539 CNS
RXF 393 renal = test system: RXF 393 renal
DU-145 prostate = test system: DU-145 prostate
NCI-H226 lung = test system: NCI-H226 lung
CCRF-CEM leukemia = test system: CCRF-CEM leukemia
MCF7 breast = test system: MCF7 breast
K-562 leukemia = test system: K-562 leukemia
M14 melanoma = test system: M14 melanoma
OVCAR-3 ovarian = test system: OVCAR-3 ovarian
HL-60(TB) leukemia = test system: HL-60(TB) leukemia
EKVX NSCLC = test system: EKVX NSCLC
UACC-62 melanoma = test system: UACC-62 melanoma
HS 578T breast = test system: HS 578T breast
HCC-2998 colon = test system: HCC-2998 colon
NCI-H460 lung = test system: NCI-H460 lung
A549 NSCLC = test system: A549 NSCLC
PC-3 prostate = test system: PC-3 prostate
MDA-MB-231 breast = test system: MDA-MB-231 breast
786-0 renal = test system: 786-0 renal
SK-MEL-5 melanoma = test system: SK-MEL-5 melanoma
MDA-MB-435 = test system: MDA-MB-435
NCI-H23 lung = test system: NCI-H23 lung
RPMI-8226 leukemia = test system: RPMI-8226 leukemia
SK-OV-3 ovarian = test system: SK-OV-3 ovarian
UO-31 renal = test system: UO-31 renal
OVCAR-8 ovarian = test system: OVCAR-8 ovarian
HOP-62 NSCLC = test system: HOP-62 NSCLC
SF-295 CNS = test system: SF-295 CNS
HOP-92 NSCLC = test system: HOP-92 NSCLC
SNB-19 CNS = test system: SNB-19 CNS
MALME-3M melanoma = test system: MALME-3M melanoma
IGROV1 ovarian = test system: IGROV1 ovarian

With `O=P1(N(CCCl)CCCl)Oc2c(Cl)cc(Cl)c(Cl)c2Cc2c(Cl)c(Cl)cc(Cl)c2O1` the TGI (NCI/ADR-RES ovarian) was > 100 µM, the TGI (KM12 colon) was > 100 µM and the TGI (HCT-15 colon) was > 100 µM. The TGI (BT-549 breast) was > 100 µM, the TGI (TK-10 renal) was > 100 µM and the TGI (NCI-H522 lung) was > 100 µM. The TGI (SF-268 CNS) was > 100 µM, the TGI (MOLT-4 leukemia) was > 100 µM and the TGI (SR leukemia) was > 100 µM. For the same molecule, the TGI (SK-MEL-2 melanoma) was 74.5 µM, the TGI (UACC-257 melanoma) was > 100 µM and the TGI (COLO 205 colon) was 45.7 µM. For the same molecule, the TGI (OVCAR-4 ovarian) was > 100 µM, the TGI (SW-620 colon) was > 100 µM and the TGI (MDA-N) was > 100 µM. For the same molecule, the TGI (OVCAR-5 ovarian) was > 100 µM, the TGI (SNB-75 CNS) was > 100 µM and the TGI (A498 renal) was > 100 µM. For the same molecule, the TGI (HT29 colon) was > 100 µM, the TGI (T-47D breast) was > 100 µM and the TGI (U251 CNS) was > 100 µM. The TGI (ACHN renal) was > 100 µM, the TGI (SK-MEL-28 melanoma) was > 100 µM and the TGI (HCT-116 colon) was > 100 µM. For the same molecule, the TGI (LOX IMVI melanoma) was > 100 µM, the TGI (SN12C renal) was > 100 µM and the TGI (CAKI-1 renal) was > 100 µM. The TGI (SF-539 CNS) was > 100 µM, the TGI (RXF 393 renal) was > 100 µM and the TGI (DU-145 prostate) was > 100 µM. For the same molecule, the TGI (NCI-H226 lung) was > 100 µM, the TGI (CCRF-CEM leukemia) was > 100 µM and the TGI (MCF7 breast) was > 100 µM. For the same molecule, the TGI (K-562 leukemia) was > 100 µM, the TGI (M14 melanoma) was > 100 µM and the TGI (OVCAR-3 ovarian) was > 100 µM. The TGI (HL-60(TB) leukemia) was > 100 µM, the TGI (EKVX NSCLC) was > 100 µM and the TGI (UACC-62 melanoma) was > 100 µM. For the same molecule, the TGI (HS 578T breast) was > 100 µM, the TGI (HCC-2998 colon) was > 100 µM and the TGI (NCI-H460 lung) was > 100 µM. For the same molecule, the TGI (A549 NSCLC) was > 100 µM, the TGI (PC-3 prostate) was > 100 µM and the TGI (MDA-MB-231 breast) was > 100 µM. The TGI (786-0 renal) was > 100 µM, the TGI (SK-MEL-5 melanoma) was > 100 µM and the TGI (MDA-MB-435) was > 100 µM. For the same molecule, the TGI (NCI-H23 lung) was > 100 µM, the TGI (RPMI-8226 leukemia) was > 100 µM and the TGI (SK-OV-3 ovarian) was > 100 µM. For the same molecule, the TGI (UO-31 renal) was > 100 µM, the TGI (OVCAR-8 ovarian) was > 100 µM and the TGI (HOP-62 NSCLC) was > 100 µM. The TGI (SF-295 CNS) was > 100 µM and the TGI (HOP-92 NSCLC) was 66.5 µM.

In the case of `CC(C)[C@H](NC(=O)[C@H](C(C)C)N(Cc1ccccc1)Cc1ccccc1)C(=O)N(C)[C@H](C(=O)N1CCC[C@H]1C(=O)N(C)[C@H](C)C(=O)NCc1ccc2c(c1)OCO2)C(C)C` (Bn2Val-V[NMeV]P[dNMeA]-NHPiperonyl), the TGI (NCI/ADR-RES ovarian) is reported as > 100 µM, the TGI (KM12 colon) is reported as > 100 µM and the TGI (HCT-15 colon) is reported as > 100 µM. For the same molecule, the TGI (BT-549 breast) was 57.5 µM, the TGI (TK-10 renal) was > 100 µM and the TGI (SNB-19 CNS) was > 100 µM. For the same molecule, the TGI (NCI-H522 lung) was > 100 µM, the TGI (SF-268 CNS) was > 74.5 µM and the TGI (MOLT-4 leukemia) was > 100 µM. The TGI (SK-MEL-2 melanoma) was 25.5 µM, the TGI (UACC-257 melanoma) was > 100 µM and the TGI (OVCAR-4 ovarian) was > 100 µM. The TGI (SW-620 colon) was > 100 µM, the TGI (MDA-N) was 49.4 µM and the TGI (OVCAR-5 ovarian) was 23.9 µM. For the same molecule, the TGI (HT29 colon) was 9.04 µM, the TGI (U251 CNS) was 43 µM and the TGI (ACHN renal) was > 100 µM. The TGI (SK-MEL-28 melanoma) was > 100 µM, the TGI (HCT-116 colon) was 23.2 µM and the TGI (LOX IMVI melanoma) was > 100 µM. The TGI (CAKI-1 renal) was > 100 µM, the TGI (SF-539 CNS) was 11.5 µM and the TGI (MALME-3M melanoma) was > 65.3 µM. For the same molecule, the TGI (DU-145 prostate) was > 33.2 µM, the TGI (NCI-H226 lung) was > 100 µM and the TGI (CCRF-CEM leukemia) was 8.72 µM. The TGI (MCF7 breast) was 7.55 µM, the TGI (K-562 leukemia) was 54 µM and the TGI (M14 melanoma) was > 100 µM. For the same molecule, the TGI (OVCAR-3 ovarian) was 57.9 µM, the TGI (HL-60(TB) leukemia) was 2.8 µM and the TGI (EKVX NSCLC) was > 100 µM. For the same molecule, the TGI (UACC-62 melanoma) was > 74.2 µM, the TGI (HS 578T breast) was > 100 µM and the TGI (HCC-2998 colon) was 37.1 µM. The TGI (NCI-H460 lung) was > 100 µM, the TGI (A549 NSCLC) was > 100 µM and the TGI (IGROV1 ovarian) was > 100 µM. The TGI (PC-3 prostate) was 89.9 µM, the TGI (MDA-MB-231 breast) was > 100 µM and the TGI (786-0 renal) was > 83.2 µM. For the same molecule, the TGI (MDA-MB-435) was > 96.4 µM, the TGI (NCI-H23 lung) was > 100 µM and the TGI (RPMI-8226 leukemia) was 6.2 µM. The TGI (SK-OV-3 ovarian) was > 100 µM, the TGI (UO-31 renal) was > 100 µM and the TGI (OVCAR-8 ovarian) was > 100 µM. For the same molecule, the TGI (HOP-62 NSCLC) was > 100 µM and the TGI (SF-295 CNS) was > 100 µM.

For `N=C1/C(=C/c2ccco2)C(=O)N=C2SC=NN12`, the TGI (NCI/ADR-RES ovarian) was > 100 µM, the TGI (KM12 colon) was > 100 µM and the TGI (HCT-15 colon) was > 100 µM. For the same molecule, the TGI (BT-549 breast) was > 100 µM, the TGI (TK-10 renal) was > 100 µM and the TGI (SNB-19 CNS) was > 100 µM. For the same molecule, the TGI (NCI-H522 lung) was > 100 µM, the TGI (SF-268 CNS) was > 100 µM and the TGI (MOLT-4 leukemia) was > 100 µM. For the same molecule, the TGI (SR leukemia) was > 100 µM, the TGI (SK-MEL-2 melanoma) was > 100 µM and the TGI (UACC-257 melanoma) was > 100 µM. For the same molecule, the TGI (COLO 205 colon) was > 100 µM, the TGI (OVCAR-4 ovarian) was > 100 µM and the TGI (SW-620 colon) was > 100 µM. For the same molecule, the TGI (MDA-N) was > 100 µM, the TGI (OVCAR-5 ovarian) was > 100 µM and the TGI (SNB-75 CNS) was > 100 µM. The TGI (HT29 colon) was > 100 µM, the TGI (T-47D breast) was > 100 µM and the TGI (U251 CNS) was > 100 µM. The TGI (ACHN renal) was > 100 µM, the TGI (SK-MEL-28 melanoma) was > 100 µM and the TGI (HCT-116 colon) was > 100 µM. The TGI (LOX IMVI melanoma) was > 100 µM, the TGI (SN12C renal) was > 100 µM and the TGI (CAKI-1 renal) was > 100 µM. The TGI (SF-539 CNS) was > 100 µM, the TGI (RXF 393 renal) was > 100 µM and the TGI (MALME-3M melanoma) was > 100 µM. For the same molecule, the TGI (DU-145 prostate) was > 100 µM, the TGI (NCI-H226 lung) was > 100 µM and the TGI (CCRF-CEM leukemia) was > 100 µM. For the same molecule, the TGI (MCF7 breast) was > 100 µM, the TGI (K-562 leukemia) was > 100 µM and the TGI (M14 melanoma) was > 100 µM. The TGI (OVCAR-3 ovarian) was > 100 µM, the TGI (HL-60(TB) leukemia) was > 100 µM and the TGI (EKVX NSCLC) was > 100 µM. For the same molecule, the TGI (UACC-62 melanoma) was > 100 µM, the TGI (HS 578T breast) was > 100 µM and the TGI (HCC-2998 colon) was > 100 µM. For the same molecule, the TGI (NCI-H460 lung) was > 100 µM, the TGI (A549 NSCLC) was > 100 µM and the TGI (IGROV1 ovarian) was > 100 µM. For the same molecule, the TGI (PC-3 prostate) was > 100 µM, the TGI (MDA-MB-231 breast) was > 100 µM and the TGI (786-0 renal) was > 100 µM. The TGI (SK-MEL-5 melanoma) was > 100 µM, the TGI (MDA-MB-435) was > 100 µM and the TGI (NCI-H23 lung) was > 100 µM. The TGI (RPMI-8226 leukemia) was > 100 µM, the TGI (SK-OV-3 ovarian) was > 100 µM and the TGI (UO-31 renal) was > 100 µM. For the same molecule, the TGI (OVCAR-8 ovarian) was > 100 µM, the TGI (HOP-62 NSCLC) was > 100 µM and the TGI (SF-295 CNS) was > 100 µM. For the same molecule, the TGI (HOP-92 NSCLC) was > 100 µM.
